According to patent US8889671B2, “Compounds and methods for treating bacterial infections” (AstraZeneca AB, priority 2013, dated 2014):
pIC50: −log10 of the molar value. ≈ marks a conversion by molar mass, not a printed value. Read-outs that look alike come from different tables or passages of the source.

Assays:
[1] = system: Pseudomonas aeruginosa; assay: Susceptibility testing (MIC) Assay 2, broth microdilution; type: cell-based; conditions: for MIC: PAO1, read-out: Pae MIC
[2] = system: Haemophilus influenzae; assay: as above; type: cell-based; conditions: ATCC 51907, in vivo strain, read-out: Hin MIC
[3] = system: Klebsiella pneumoniae; assay: as above; type: cell-based; conditions: clinical isolate, mucoid, read-out: Kpn MIC
[4] = system: Escherichia coli; assay: as above; type: cell-based; conditions: K12, read-out: Eco MIC
[5] = system: Staphylococcus aureus; assay: Susceptibility testing (MIC) Assay 1, broth microdilution; type: cell-based
[6] = system: Streptococcus pyogenes; assay: as above; type: cell-based; conditions: Streptococcus pyrgenes, in vivo strain, read-out: Spy MIC
[7] = system: Streptococcus pneumoniae; assay: as above; type: cell-based
[8] = biological target: Escherichia coli DNA gyrase A/B tetramer (Escherichia coli (strain K12), UniProt P0AES4+P0AES6); assay: DNA gyrase supercoiling activity fluorescence polarisation assay; type: biochemical; conditions: 0.3 mM ATP
How it was run: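 Relaxed triplex-forming plasmid (130 micrograms/mL) supercoiled by 5 nM gyrase A/B tetramer in Tris-HCl pH 7.5 buffer with 4 mM MgCl2 and 0.3 mM ATP, ~30 min, ambient temperature. Quenched with 5′-BODIPY-FL triplex probe at pH 3.5; fluorescence anisotropy read after 60 min. IC50 by nonlinear regression against two control reactions.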

[9] = ATCC51907, Haemophilus influenzae
[10] = Staphylococcus aureus, Staphylococcus aureus in vivo strain, MSQS, read-out: Sau(d) MIC
[11] = Staphylococcus aureus, in vivo strain, MRQR, read-out: Sau(e) MIC
[12] = Staphylococcus aureus, serum, read-out: Sau(f) MIC
[13] = in vivo strain (footnote b), read-out: Spn(b) MIC
[14] = in vivo strain (footnote c), read-out: Spn(c) MIC
[15] = Eco Gyr FP Mean IC50, E. coli DNA gyrase supercoiling

Row | Compound | MIC [1] | MIC [2, 9] | MIC [3] | MIC [4] | MIC [5, 10] | MIC [5, 11] | MIC [5, 12] | MIC ([6]; Streptococcus pyogenes) | MIC [7, 13] | MIC [7, 14] | pIC50 [8, 15] | Pae MIC ([1]; PAO1) | MIC [2] | MIC ([5]; Staphylococcus aureus in vivo strain, MSQS, read-out: Sau(d) MIC) | MIC [6] | pIC50 ([8]; E. coli DNA gyrase supercoiling, read-out: Eco Gyr FP Mean IC50)
1 | C[C@@H]1CN2c3c(cc4c(N5C(=O)OC[C@@H]5CCO)noc4c3F)CC3(C(=O)NC(=O)NC3=O)[C@H]2[C@H](C)O1 [Example 31, (2R,4S,4aS)-11-Fluoro-8-((S)-4-(2-hydroxyethyl)-2-oxooxazolidin-3-yl)-2,4-dimethyl-2,4,4a,6-tetrahydro-1H,1′H-spiro[isoxazolo[4,5-g][1,4]oxazino[4,3-a]quinoline-5,5′-pyrimidine]-2′,4′,6′(3′H)-trione] | > 200 µM | 0.39 µM (≈ 0.202 µg/mL) | > 200 µM | 100 µM (≈ 51.7 µg/mL) | 3.1 µM (≈ 1.6 µg/mL) | 12 µM (≈ 6.21 µg/mL) | 3.1 µM (≈ 1.6 µg/mL) | 0.39 µM (≈ 0.202 µg/mL) | 0.78 µM (≈ 0.404 µg/mL) | 0.78 µM (≈ 0.404 µg/mL) | 6.38 |  |  |  |  | 
2 | C[C@@H]1CN2c3c(cc4c(N5C[C@@H](CF)OC5=O)noc4c3Cl)CC3(C(=O)NC(=O)NC3=O)[C@H]2[C@H](C)O1 [Example 32, (2R,4S,4aS)-11-Chloro-8-((S)-5-(fluoromethyl)-2-oxooxazolidin-3-yl)-2,4-dimethyl-2,4,4a,6-tetrahydro-1H,1′H-spiro[isoxazolo[4,5-g][1,4]oxazino[4,3-a]quinoline-5,5′-pyrimidine]-2′,4′,6′(3′H)-trione] | 200 µM (≈ 104 µg/mL) | 0.27 µM (≈ 0.141 µg/mL) | 200 µM (≈ 104 µg/mL) | 1.5 µM (≈ 0.783 µg/mL) | < 0.2 µM | 0.78 µM (≈ 0.407 µg/mL) | 0.39 µM (≈ 0.204 µg/mL) | < 0.2 µM | 0.39 µM (≈ 0.204 µg/mL) | 0.39 µM (≈ 0.204 µg/mL) | 6.20 |  |  |  |  | 
3 | C[C@@H]1CN2c3c(cc4c(N5C(=O)OC[C@@H]5CCCO)noc4c3Cl)CC3(C(=O)NC(=O)NC3=O)[C@H]2[C@H](C)O1 [Example 33, (2R,4S,4aS)-11-Chloro-8-((S)-4-(3-hydroxpropyl)-2-oxooxazolidin-3-yl)-2,4-dimethyl-2,4,4a,6-tetrahydro-1H,1′H-spiro[isoxazolo[4,5-g][1,4]oxazino[4,3-a]quinoline-5,5′-pyrimidine]-2′,4′,6′(3′H)-trione] |  |  | >200 µM | 100 µM (≈ 54.8 µg/mL) |  | 12 µM (≈ 6.58 µg/mL) | 6.2 µM (≈ 3.4 µg/mL) |  | 0.39 µM (≈ 0.214 µg/mL) | 0.39 µM (≈ 0.214 µg/mL) |  | >200 µM | 0.78 µM (≈ 0.427 µg/mL) | 3.1 µM (≈ 1.7 µg/mL) | 0.39 µM (≈ 0.214 µg/mL) | 6.59
4 | C[C@@H]1CN2c3c(cc4c(N5C(=O)OC[C@@H]5CCCF)noc4c3Cl)CC3(C(=O)NC(=O)NC3=O)[C@H]2[C@H](C)O1 [Example 34, (2R,4S,4aS)-11-Chloro-8-((S)-4-(3-fluoropropyl)-2-oxooxazolidin-3-yl)-2,4-dimethyl-2,4,4a,6-tetrahydro-1H,1′H-spiro[isoxazolo[4,5-g][1,4]oxazino[4,3-a]quinoline-5,5′-pyrimidine]-2′,4′,6′(3′H)-trione] | > 200 µM | 0.39 µM (≈ 0.214 µg/mL) | 200 µM (≈ 110 µg/mL) | 25 µM (≈ 13.7 µg/mL) | < 0.2 µM | 0.78 µM (≈ 0.429 µg/mL) | 1.6 µM (≈ 0.88 µg/mL) | 0.39 µM (≈ 0.214 µg/mL) | 0.39 µM (≈ 0.214 µg/mL) | 0.39 µM (≈ 0.214 µg/mL) | 6.64 |  |  |  |  | 
5 | COC[C@@H]1CN(c2noc3c(F)c4c(cc23)CC2(C(=O)NC(=O)NC2=O)[C@H]2[C@H](C)O[C@H](C)CN42)C(=O)O1 [Example 35] | > 200 µM | 0.78 µM (≈ 0.404 µg/mL) | > 200 µM | 50 µM (≈ 25.9 µg/mL) | < 0.2 µM | 1.6 µM (≈ 0.828 µg/mL) | 0.39 µM (≈ 0.202 µg/mL) | 0.2 µM (≈ 0.103 µg/mL) | 0.39 µM (≈ 0.202 µg/mL) | 0.39 µM (≈ 0.202 µg/mL) | 6.51 |  |  |  |  | 
6 | COC[C@H]1CN(c2noc3c(F)c4c(cc23)CC2(C(=O)NC(=O)NC2=O)[C@H]2[C@H](C)O[C@H](C)CN42)C(=O)O1 [Example 36] | > 200 µM | 1.6 µM (≈ 0.828 µg/mL) | > 200 µM | 100 µM (≈ 51.7 µg/mL) | 0.78 µM (≈ 0.404 µg/mL) | 3.1 µM (≈ 1.6 µg/mL) | 1.6 µM (≈ 0.828 µg/mL) | 0.78 µM (≈ 0.404 µg/mL) | 1.6 µM (≈ 0.828 µg/mL) | 1.6 µM (≈ 0.828 µg/mL) | 6.23 |  |  |  |  | 
7 | C[C@@H]1CN2c3c(cc4c(N5C[C@H](CO)OC5=O)noc4c3F)CC3(C(=O)NC(=O)NC3=O)[C@H]2[C@H](C)O1 [Example 37, (2R,4S,4aS)-11-Fluoro-8-[(5R)-5-(hydroxymethyl)-2-oxo-1,3-oxazolidin-3-yl]-2,4-dimethyl-1,2,4,4a-tetrahydro-2′H,6H-spiro[1,4-oxazino[4,3-a][1,2]oxazolo[4,5-g]quinoline-5,5′-pyrimidine]-2′,4′,6′(1′H,3′H)-trione] | > 200 µM | 0.39 µM (≈ 0.196 µg/mL) | > 200 µM | 200 µM (≈ 101 µg/mL) | 3.1 µM (≈ 1.56 µg/mL) | 25 µM (≈ 12.6 µg/mL) | 6.2 µM (≈ 3.12 µg/mL) | 0.39 µM (≈ 0.196 µg/mL) | 0.39 µM (≈ 0.196 µg/mL) | 0.78 µM (≈ 0.393 µg/mL) | 6.92 |  |  |  |  | 
8 | C[C@@H]1CN2c3c(cc4c(N5C[C@H](CF)OC5=O)noc4c3F)CC3(C(=O)NC(=O)NC3=O)[C@H]2[C@H](C)O1 [Example 38, (2R,4S,4aS)-11-Fluoro-8-[(5R)-5-(fluoromethyl)-2-oxo-1,3-oxazolidin-3-yl]-2,4-dimethyl-1,2,4,4a-tetrahydro-2′H,6H-spiro[1,4-oxazino[4,3-a][1,2]oxazolo[4,5-g]quinoline-5,5′-pyrimidine]-2′,4′,6′(1′H,3′H)-trione] | > 200 µM | 0.39 µM (≈ 0.197 µg/mL) | 200 µM (≈ 101 µg/mL) | 25 µM (≈ 12.6 µg/mL) | < 0.2 µM | 1.65 µM (≈ 0.834 µg/mL) | 0.78 µM (≈ 0.394 µg/mL) | < 0.2 µM | 0.39 µM (≈ 0.197 µg/mL) | 0.39 µM (≈ 0.197 µg/mL) | 7.17 |  |  |  |  | 
9 | C=C[C@H]1COC(=O)N1c1noc2c(F)c3c(cc12)CC1(C(=O)NC(=O)NC1=O)[C@H]1[C@H](C)O[C@H](C)CN31 [Example 39, (2R,4S,4aS)-11-Fluoro-2,4-dimethyl-8-((S)-2-oxo-4-vinyloxazolidin-3-yl)-2,4,4a,6-tetrahydro-1H,1′H-spiro[isoxazolo[4,5-g][1,4]oxazino[4,3-a]quinoline-5,5′-pyrimidine]-2′,4′,6′(3′H)-trione] | > 200 µM | 0.39 µM (≈ 0.195 µg/mL) | 200 µM (≈ 99.9 µg/mL) | 25 µM (≈ 12.5 µg/mL) | 0.39 µM (≈ 0.195 µg/mL) | 1.6 µM (≈ 0.799 µg/mL) | 1.6 µM (≈ 0.799 µg/mL) | 0.39 µM (≈ 0.195 µg/mL) | 0.78 µM (≈ 0.39 µg/mL) | 0.78 µM (≈ 0.39 µg/mL) | 7.01 |  |  |  |  | 
10 | C[C@@H]1CN2c3c(cc4c(N5C[C@H](C=NO)OC5=O)noc4c3F)CC3(C(=O)NC(=O)NC3=O)[C@H]2[C@H](C)O1 [Example 40, (2R,4S,4aS)-11-Fluoro-8-{(5R)-5-[(hydroxyimino)methyl]-2-oxo-1,3-oxazolidin-3-yl}-2,4-dimethyl-1,2,4,4a-tetrahydro-2′H,6H-spiro[1,4-oxazino[4,3a][1,2]oxazolo[4,5-g]quinoline-5,5′-pyrimidine]-2′,4′,6′(1′H,3′H)-trione] | > 200 µM | 0.39 µM (≈ 0.201 µg/mL) | > 200 µM | 12 µM (≈ 6.2 µg/mL) | 0.78 µM (≈ 0.403 µg/mL) | 3.1 µM (≈ 1.6 µg/mL) | 1.6 µM (≈ 0.826 µg/mL) | 0.28 µM (≈ 0.145 µg/mL) | 0.39 µM (≈ 0.201 µg/mL) | 0.78 µM (≈ 0.403 µg/mL) | 6.42 |  |  |  |  | 
11 | C[C@@H]1CN2c3c(cc4c(N5C(=O)OC[C@@H]5C#N)noc4c3F)CC3(C(=O)NC(=O)NC3=O)[C@H]2[C@H](C)O1 [Example 41, (4S)-3-[(2R,4S,4aS)-11-Fluoro-2,4-dimethyl-2′,4′,6′-trioxo-1,1′,2,3′,4,4′,4a,6′-octahydro-2′H,6H-spiro[1,4-oxazino[4,3-a][1,2]oxazolo[4,5-g]quinoline-5,5′-pyrimidin]-8-yl]-2-oxo-1,3-oxazolidine-4-carbonitrile] | > 200 µM | 0.78 µM (≈ 0.389 µg/mL) | > 200 µM | 25 µM (≈ 12.5 µg/mL) | 0.78 µM (≈ 0.389 µg/mL) | 1.6 µM (≈ 0.797 µg/mL) | 1.6 µM (≈ 0.797 µg/mL) | 0.78 µM (≈ 0.389 µg/mL) | 0.39 µM (≈ 0.194 µg/mL) | 0.78 µM (≈ 0.389 µg/mL) | 6.34 |  |  |  |  | 
12 | CON=C[C@H]1COC(=O)N1c1noc2c(F)c3c(cc12)CC1(C(=O)NC(=O)NC1=O)[C@H]1[C@H](C)O[C@H](C)CN31 [Example 42, (2R,4S,4aS)-11-Fluoro-8-{(4S)-4-[(methoxyimino)methyl]-2-oxo-1,3-oxazolidin-3-yl}-2,4-dimethyl-1,2,4,4a-tetrahydro-2′H,6H-spiro[1,4-oxazino[4,3-a][1,2]oxazolo[4,5-g]quinoline-5,5′-pyrimidine]-2′,4′,6′(1′H,3′H)-trione] | > 200 µM | 0.39 µM (≈ 0.207 µg/mL) | 200 µM (≈ 106 µg/mL) | 25 µM (≈ 13.3 µg/mL) | < 0.2 µM | 0.39 µM (≈ 0.207 µg/mL) | 1.6 µM (≈ 0.849 µg/mL) | 0.39 µM (≈ 0.207 µg/mL) | 0.39 µM (≈ 0.207 µg/mL) | 0.39 µM (≈ 0.207 µg/mL) | 6.54 |  |  |  |  | 
13 | CON=C[C@H]1CN(c2noc3c(F)c4c(cc23)CC2(C(=O)NC(=O)NC2=O)[C@H]2[C@H](C)O[C@H](C)CN42)C(=O)O1 [Example 43] | > 100 µM | 1.6 µM (≈ 0.849 µg/mL) | > 100 µM | 50 µM (≈ 26.5 µg/mL) | 0.39 µM (≈ 0.207 µg/mL) | 0.78 µM (≈ 0.414 µg/mL) | 1.6 µM (≈ 0.849 µg/mL) | 0.78 µM (≈ 0.414 µg/mL) | 0.78 µM (≈ 0.414 µg/mL) | 1.6 µM (≈ 0.849 µg/mL) | 6.36 |  |  |  |  | 
